For the test, the system named is batrachotoxin (BTX) binding site of the sodium channel. Put plainly: Affinity to the batrachotoxin (BTX) binding site of the sodium channel. On the set-up: species or system rat. As to conditions: [3H]-batrachotoxinin A20 α-benzoate 10 nM; synaptosomes from rat cerebral cortex; test concentration not given.

11 compounds from patent publication US7829568B2, “Substituted 5,6,7,8-tetrahydroimidazo[1,2-a]pyridin-2-ylamine compounds and their use for producing drugs” (Gruenenthal GmbH, priority 2005, dated 2010) can be followed below.

For `CN(C(=O)c1ccccc1)c1nc2n(c1C(=O)N1CCN(c3ccc(C(F)(F)F)cc3)CC1)CCCC2` [Example 167, N-methyl-N-{3-[4-(4-trifluoromethyl-phenyl)-piperazine-1-carbonyl]-5,6,7,8-tetrahydro-imidazo[1,2-a]pyridin-2-yl}-benzamide], the “BTX inhibition (rat) (% inhibition)” value is 44%.

Regarding `CN(C(=O)Cc1ccccc1)c1nc2n(c1C(=O)N(C)C1CCN(Cc3ccc(-c4ccccc4)cc3)C1)CCCC2` (centres unmarked) [Example 168, 2-(methyl-phenylacetyl-amino)-5,6,7,8-tetrahydro-imidazo[1,2-a]pyridine-3-carboxylic acid (1-biphenyl-4-ylmethyl-pyrrolidin-3-yl)-methyl-amide], the “BTX inhibition (rat) (% inhibition)” value was 92%.

As for `CN(C(=O)c1cccc2ccccc12)c1nc2n(c1C(=O)Nc1ccc(C(C)(C)C)cc1)CCCC2` [Example 170, 2-[methyl-(naphthalene-1-carbonyl)-amino]-5,6,7,8-tetrahydro-imidazo[1,2-a]pyridine-3-carboxylic acid (4-tert-butyl-phenyl)-amide], the “BTX inhibition (rat) (% inhibition)” value amounted to 80%.

As to `CCCCN(C(=O)c1ccc(F)c(F)c1)c1nc2n(c1C(=O)NCCC(C)(C)C)CCCC2` [Example 171, 2-[butyl-(3,4-difluoro-benzoyl)-amino]-5,6,7,8-tetrahydro-imidazo[1,2-a]pyridine-3-carboxylic acid (3,3-dimethyl-butyl)-amide], the “BTX inhibition (rat) (% inhibition)” value is given as 47%.

As to `CCCCN(C(=O)c1cccc(Cl)c1)c1nc2n(c1C(=O)NC1CCN(Cc3cc(OC)c(OC)cc3Br)C1)CCCC2` (centres unmarked) [Example 172, 2-[butyl-(3-chloro-benzoyl)-amino]-5,6,7,8-tetrahydro-imidazo[1,2-a]pyridine-3-carboxylic acid [1-(2-bromo-4,5-dimethoxy-benzyl)-pyrrolidin-3-yl]-amide], the “BTX inhibition (rat) (% inhibition)” value is recorded as 96%.

In the case of `CN(C(=O)c1cccc2ccccc12)c1nc2n(c1C(=O)N1CCN(CC=Cc3ccccc3)CC1)CCCC2` [Example 173, naphthalene-1-carboxylic acid methyl-{3-[4-(3-phenyl-allyl)-piperazine-1-carbonyl]-5,6,7,8-tetrahydro-imidazo[1,2-a]pyridin-2-yl}-amide], the “BTX inhibition (rat) (% inhibition)” value is on record as 74%.

For the compound `CN(C(=O)c1cccc2ccccc12)c1nc2n(c1C(=O)N1CCN(CCc3ccccc3)CC1)CCCC2` [Example 174, naphthalene-1-carboxylic acid methyl-[3-(4-phenethyl-piperazine-1-carbonyl)-5,6,7,8-tetrahydro-imidazo[1,2-a]pyridin-2-yl]-amide], the “BTX inhibition (rat) (% inhibition)” value is 47%.

On to `CCCCN(C(=O)c1cccc(Cl)c1)c1nc2n(c1C(=O)N1CCC(O)(c3cccc(C(F)(F)F)c3)CC1)CCCC2` [Example 175, N-butyl-3-chloro-N-{3-[4-hydroxy-4-(3-trifluoromethyl-phenyl)-piperidine-1-carbonyl]-5,6,7,8-tetrahydro-imidazo[1,2-a]pyridin-2-yl}-benzamide], for which the “BTX inhibition (rat) (% inhibition)” value was 65%.

As for `CN(C(=O)Cc1ccccc1)c1nc2n(c1C(=O)N1CCN(CCCc3ccccc3)CC1)CCCC2` [Example 176, N-methyl-2-phenyl-N-{3-[4-(3-phenyl-propyl)-piperazine-1-carbonyl]-5,6,7,8-tetrahydro-imidazo[1,2-a]pyridin-2-yl}-acetamide], the “BTX inhibition (rat) (% inhibition)” value turned out to be 71%.

As to `CCCCN(C(=O)c1ccc(F)c(F)c1)c1nc2n(c1C(=O)N1CCN(c3ccccc3Cl)CC1)CCCC2` [Example 178, N-butyl-N-{3-[4-(2-chloro-phenyl)-piperazine-1-carbonyl]-5,6,7,8-tetrahydro-imidazo[1,2-a]pyridin-2-yl}-3,4-difluoro-benzamide], the “BTX inhibition (rat) (% inhibition)” value is 79%.

Take `CCCCN(C(=O)c1ccc(F)c(F)c1)c1nc2n(c1C(=O)NCCC(c1ccccc1)c1ccccc1)CCCC2` [Example 180, 2-[butyl-(3,4-difluoro-benzoyl)-amino]-5,6,7,8-tetrahydro-imidazo[1,2-a]pyridine-3-carboxylic acid (3,3-diphenyl-propyl)-amide]: the “BTX inhibition (rat) (% inhibition)” value came to 62%.
